Measurements as given in patent publication US7041704B2, “Methods of treating gastrointestinal tract disorders using sodium channel modulators” (Dynogen Pharmaceuticals, Inc., priority 2003, dated 2006).

Tests used:
[1] = test system: sodium currents in colon DRG neurons; experiment: Whole cell patch-clamp, activity-dependent (use-dependent) modulation of sodium currents, slow vs fast stimulation; format: cell-based, rat; settings: 100 µM lamotrigine; slow (0.2 Hz) vs fast (17 Hz) step depolarizations from −50 to 0 mV; three neurons; P<0.05 vs slow stimulation
Description: (§1) Labeling of GI tract afferent neurons: Adult female Sprague-Dawley rats (150–300 g) were deeply anesthetized with pentobarbital anesthesia and placed on isoflurane maintenance anesthesia. A ventral midline incision was made through the abdominal skin and musculature, exposing the GI tract. Five injections of the fluorescent dyes Di-I (5 µl each of 25 mg/ml Di-I in DMSO) or Fast Blue (4% w/v) were made into the wall of the colon to label primary afferent fibers innervating the GI tract. The areas were rinsed with sterile saline to eliminate nonspecific spread of dye, and the incision was closed. […] Labeled neurons were identified in vitro using fluorescence optics. […]
(§2) In most experiments, neurons were incubated in culture medium containing the FITC-labeled lectin BSI-B4 (IB4, […]) at 37° C. for 5 min before recording. The coverslip was washed with extracellular recording solution for 1 min before being placed in a recording chamber mounted on the stage of an inverted microscope equipped with fluorescence optics. […]
(§3) Sodium currents were recorded from DRG neurons using standard electrophysiologic protocols. […] Currents were recorded using a patch-clamp amplifier and digitized at 3–10 kHz for acquisition. Neuronal input resistance and membrane capacitance were determined from the amplitude and kinetics of the current response to a voltage pulse from a holding potential of −50 mV. […]

[2] = target: TTX-R sodium currents in GI tract afferent neurons (Rattus norvegicus, UniProt Q62968); experiment: Whole cell patch-clamp, tonic block of TTX-R sodium currents, cumulative concentration-response; format: cell-based; settings: bath application; four GI tract afferent neurons
TTX-R sodium currents in GI tract afferent neurons, sequence (Q62968 whole entry, looked up): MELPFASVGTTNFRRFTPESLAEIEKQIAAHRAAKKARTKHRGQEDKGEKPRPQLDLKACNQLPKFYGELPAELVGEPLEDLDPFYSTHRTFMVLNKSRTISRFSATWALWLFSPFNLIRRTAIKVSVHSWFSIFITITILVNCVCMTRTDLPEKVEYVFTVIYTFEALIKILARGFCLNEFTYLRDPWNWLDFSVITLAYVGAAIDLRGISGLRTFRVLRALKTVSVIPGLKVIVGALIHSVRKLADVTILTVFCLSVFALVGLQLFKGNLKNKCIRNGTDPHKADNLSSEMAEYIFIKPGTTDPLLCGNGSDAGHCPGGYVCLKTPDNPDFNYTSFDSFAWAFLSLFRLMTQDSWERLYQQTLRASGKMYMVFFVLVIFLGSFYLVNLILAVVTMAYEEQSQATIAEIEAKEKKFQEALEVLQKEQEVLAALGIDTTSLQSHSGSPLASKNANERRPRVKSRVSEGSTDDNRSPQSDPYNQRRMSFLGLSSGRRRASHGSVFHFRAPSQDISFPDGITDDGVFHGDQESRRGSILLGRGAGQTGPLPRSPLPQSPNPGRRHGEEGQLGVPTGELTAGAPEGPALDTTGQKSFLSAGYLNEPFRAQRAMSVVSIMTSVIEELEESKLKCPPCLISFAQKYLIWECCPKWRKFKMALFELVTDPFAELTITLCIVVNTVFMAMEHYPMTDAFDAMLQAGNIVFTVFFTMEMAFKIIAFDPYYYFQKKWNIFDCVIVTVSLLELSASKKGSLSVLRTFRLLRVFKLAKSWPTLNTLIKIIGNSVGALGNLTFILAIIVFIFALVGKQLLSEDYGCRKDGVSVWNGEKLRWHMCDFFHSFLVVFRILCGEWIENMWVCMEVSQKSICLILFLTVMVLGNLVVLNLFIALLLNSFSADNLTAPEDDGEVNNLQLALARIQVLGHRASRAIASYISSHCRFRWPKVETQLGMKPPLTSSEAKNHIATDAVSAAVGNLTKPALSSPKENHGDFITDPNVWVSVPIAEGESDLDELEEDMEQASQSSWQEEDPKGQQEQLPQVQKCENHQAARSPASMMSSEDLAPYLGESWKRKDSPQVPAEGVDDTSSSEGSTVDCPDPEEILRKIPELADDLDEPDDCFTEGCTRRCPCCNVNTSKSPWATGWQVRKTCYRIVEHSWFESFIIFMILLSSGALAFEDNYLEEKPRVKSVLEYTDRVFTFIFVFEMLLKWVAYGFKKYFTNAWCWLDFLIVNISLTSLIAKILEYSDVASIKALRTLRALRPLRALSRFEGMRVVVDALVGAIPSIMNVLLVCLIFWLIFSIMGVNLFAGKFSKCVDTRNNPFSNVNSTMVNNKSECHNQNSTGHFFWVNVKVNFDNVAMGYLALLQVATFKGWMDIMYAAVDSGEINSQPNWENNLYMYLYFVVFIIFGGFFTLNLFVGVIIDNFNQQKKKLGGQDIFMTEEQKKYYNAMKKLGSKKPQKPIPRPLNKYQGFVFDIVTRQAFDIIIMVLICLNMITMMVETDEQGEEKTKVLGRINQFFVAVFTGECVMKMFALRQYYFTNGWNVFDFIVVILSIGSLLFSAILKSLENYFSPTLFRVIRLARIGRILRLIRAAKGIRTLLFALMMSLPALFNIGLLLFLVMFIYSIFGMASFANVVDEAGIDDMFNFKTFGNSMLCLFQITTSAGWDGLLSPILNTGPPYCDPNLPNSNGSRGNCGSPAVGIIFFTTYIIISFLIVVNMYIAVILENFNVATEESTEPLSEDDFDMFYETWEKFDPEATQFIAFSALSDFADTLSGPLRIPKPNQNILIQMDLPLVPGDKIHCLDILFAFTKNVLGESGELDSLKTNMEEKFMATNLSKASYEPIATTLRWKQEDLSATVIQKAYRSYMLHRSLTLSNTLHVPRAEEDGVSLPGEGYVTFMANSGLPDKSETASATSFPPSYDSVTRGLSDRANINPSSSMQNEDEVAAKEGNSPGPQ
Description: as §1, §2, §3

Compound: Nc1nnc(-c2cccc(Cl)c2Cl)c(N)n1 [lamotrigine, 6-(2,3-Dichlorophenyl)-1,2,4-triazine-3,5-diamine]
- mean peak sodium current amplitude (mean % control amplitude) [1]: decreased to a greater extent under fast stimulation conditions

Compound: Nc1c(Br)cc(Br)cc1CNC1CCC(O)CC1 (centres unmarked) [Ambroxol]
- block of TTX-R sodium currents (in words) [2]: concentration-dependent reversible block
